Tests used:
[1] = first-in-human Study AP26113-11-101, tolerated dose in adults
Protocol: One additional dose level is planned if the 40 mg/m^2 QD→80 mg/m^2 QD dose is tolerated.

[2] = target: ALK (Homo sapiens, UniProt Q9UM73); settings: in vitro studies; cited from earlier work
[3] = tested on: secondary ALK mutants of EML4-ALK; settings: at relevant levels of exposure achieved in patients; cited from earlier work
[4] = tested on: ALK+ NSCLC; assay: phase 2 study AP26113-13-201 (ALTA trial) in adult patients with ALK+ NSCLC refractory to crizotinib; assay type: in vivo, human
Protocol: In the pivotal phase 2 study in adults with ALK+ NSCLC, 2 dose regimens were evaluated: (1) 90 mg QD; (2) 90 mg QD in Week 1 followed by escalation to 180 mg QD for those patients tolerating the 7-day 90 mg QD lead in. […] To mitigate the risk for EOPEs in pediatric patients, the doses of brigatinib selected for Week 1 of treatment are informed by adult clinical experience and designed to achieve systemic exposures not exceeding those at the 90 mg daily dose in adults.

[5] = cross-study comparison of brigatinib exposure, oral solution (AP26113-13-104) vs tablet (AP26113-16-110); assay type: in vivo, human
[6] = pediatric, 280 mg/m^2; cited from earlier work
[7] = 90→180 mg QD, adult ALK+ NSCLC refractory to crizotinib

Chain of ALK (Q9UM73 19-1620): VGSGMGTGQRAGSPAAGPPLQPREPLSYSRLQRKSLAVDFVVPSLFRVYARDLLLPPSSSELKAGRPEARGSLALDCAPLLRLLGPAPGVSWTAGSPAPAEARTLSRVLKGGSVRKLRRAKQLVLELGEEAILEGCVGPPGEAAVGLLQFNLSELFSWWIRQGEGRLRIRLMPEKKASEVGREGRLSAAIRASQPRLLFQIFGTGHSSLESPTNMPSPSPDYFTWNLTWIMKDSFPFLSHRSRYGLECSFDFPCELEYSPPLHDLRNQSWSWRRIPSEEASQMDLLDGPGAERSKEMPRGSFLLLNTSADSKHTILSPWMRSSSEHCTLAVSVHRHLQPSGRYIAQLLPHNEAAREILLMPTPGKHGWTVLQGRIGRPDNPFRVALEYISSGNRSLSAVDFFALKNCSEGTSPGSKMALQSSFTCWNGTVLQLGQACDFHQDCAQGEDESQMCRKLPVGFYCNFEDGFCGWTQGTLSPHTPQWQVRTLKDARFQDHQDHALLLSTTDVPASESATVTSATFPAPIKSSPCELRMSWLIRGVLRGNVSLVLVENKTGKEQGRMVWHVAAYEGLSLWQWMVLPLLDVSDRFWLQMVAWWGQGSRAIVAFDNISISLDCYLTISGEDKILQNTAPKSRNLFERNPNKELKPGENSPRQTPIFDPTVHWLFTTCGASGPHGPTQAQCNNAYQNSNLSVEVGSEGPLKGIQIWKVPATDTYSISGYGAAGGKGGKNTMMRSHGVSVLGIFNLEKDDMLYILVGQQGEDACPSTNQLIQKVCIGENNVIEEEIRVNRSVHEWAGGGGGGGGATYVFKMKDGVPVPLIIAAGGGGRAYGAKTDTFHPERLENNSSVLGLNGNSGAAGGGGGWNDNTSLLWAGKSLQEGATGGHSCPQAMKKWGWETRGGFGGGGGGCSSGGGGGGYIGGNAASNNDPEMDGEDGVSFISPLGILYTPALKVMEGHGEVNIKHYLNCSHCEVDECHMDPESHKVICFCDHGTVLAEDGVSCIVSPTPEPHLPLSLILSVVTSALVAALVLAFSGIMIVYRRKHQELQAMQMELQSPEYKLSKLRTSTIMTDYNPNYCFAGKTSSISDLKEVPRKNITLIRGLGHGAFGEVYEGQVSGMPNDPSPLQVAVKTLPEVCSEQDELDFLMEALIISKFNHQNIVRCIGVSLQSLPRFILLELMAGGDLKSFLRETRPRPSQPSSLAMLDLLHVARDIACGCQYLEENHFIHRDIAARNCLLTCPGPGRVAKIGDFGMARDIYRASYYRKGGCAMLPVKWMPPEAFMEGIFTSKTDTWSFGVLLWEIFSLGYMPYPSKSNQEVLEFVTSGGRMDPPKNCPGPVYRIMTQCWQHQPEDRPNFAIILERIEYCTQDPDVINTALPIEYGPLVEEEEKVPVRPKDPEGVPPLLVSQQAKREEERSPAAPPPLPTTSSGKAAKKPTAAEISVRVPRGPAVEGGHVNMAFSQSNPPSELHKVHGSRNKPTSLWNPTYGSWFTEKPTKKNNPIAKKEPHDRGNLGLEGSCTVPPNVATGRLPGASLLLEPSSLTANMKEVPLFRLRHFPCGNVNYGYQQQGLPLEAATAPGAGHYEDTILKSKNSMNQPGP

| Compound | highest acceptably tolerated dose [1] [mg QD] | ALK inhibitor potency compared with crizotinib, ceritinib and alectinib [2] | activity against 17 secondary ALK mutants of EML4-ALK [3] | duration of response (DOR) [4, 7] [months] | investigator-assessed confirmed ORR [4, 7] [%] | progression-free survival (PFS) [4, 7] [months] | PFS at 180 mg QD versus 90 mg QD ([4]; pivotal phase 2 study, adults with ALK+ NSCLC) | relative bioavailability of oral solution, AUC higher in reference to the tablet ([5]; oral solution vs tablet, adults) | oral solution/tablet AUC ratio ([5]; relative bioavailability factor) | systemic exposure at MTD/RP2D higher than adult clinical exposures at 250 mg BID [6] [%] |
| --- | --- | --- | --- | --- | --- | --- | --- | --- | --- | --- |
| COc1cc(N2CCC(N3CCN(C)CC3)CC2)ccc1Nc1ncc(Cl)c(Nc2ccccc2P(C)(C)=O)n1 [brigatinib, 5-chloro-N4-[2-(dimethylphosphoryl)phenyl]-N2-{2-methoxy-4-[4-(4-methylpiperazin-1-yl)piperidin-1-yl]phenyl}pyrimidine-2,4-diamine] | 240 | more potent ALK inhibitor than crizotinib, ceritinib, and alectinib | maintain substantial activity against all 17 secondary ALK mutants | 13.8 | 55.5 | 15.6 | longer PFS at 180 mg QD | approximately 42% | 1.42 |  |
| C[C@@H](Oc1cc(-c2cnn(C3CCNCC3)c2)cnc1N)c1c(Cl)ccc(F)c1Cl [crizotinib] |  |  |  |  |  |  |  |  |  | ~50 |
